The source of these data is paper PMC10455904, “New Phocoenamicin and Maklamicin Analogues from Cultures of Three Marine-Derived Micromonospora Strains” (Marine Drugs, 2023).

In data set [1] the test system is methicillin-resistant Staphylococcus aureus (MRSA) MB5393. In words: Antibacterial MIC assay against MRSA MB5393. It is filed as cell-based.
In data set [2] the test system is Mycobacterium tuberculosis H37Ra (ATCC25177). The data set can be described thus: Antibacterial MIC assay against M. tuberculosis H37Ra. It is filed as cell-based. To be noted: lowest concentration inhibiting ≥90% of growth.
Data set [3] relates to Enterococcus faecalis VANS 144492. The data set can be described thus: Antibacterial MIC assay against E. faecalis. It is filed as cell-based.
Data set [4] deals with Enterococcus faecium VANS 144754. In words: Antibacterial MIC assay against E. faecium. It is filed as cell-based.
Data set [5] concerns Neisseria gonorrhoeae ATCC49226. The data set can be described thus: Antibacterial MIC assay against N. gonorrhoeae. It is filed as cell-based.
Data set [6] concerns zebrafish eleuthero embryos. The data set can be described thus: Zebrafish eleuthero embryos toxicity assay (immersion). It is filed as in vivo. The settings on record: for developmental abnormalities: 25 μM, 48 h exposure, 5 dpf, representative larvae; for toxicity (lethality and sub-lethal toxicity): 3 dpf larvae, 48 h immersion, 1.6–25 μM, read at 5 dpf. The method, then:
The compounds were dissolved in dimethyl sulfoxide (DMSO) and then diluted in the fish medium (Danieau) in which the 3 dpf zebrafish larvae were swimming for 48 h. The concentrations tested were 1.6, 3.13, 6.25, 12.5 and 25 μM for each of the three compounds. Vehicle-treated Control eleuthero embryos (VHC) were also treated with the same concentration of DMSO (0.5%) in fish medium to compare the possible effects of the compounds.
After the 48 h exposure, corresponding to 5 dpf larvae, the possible mortality, touch-stimulation response and developmental abnormalities were examined using a dissecting microscope coupled with a digital color camera and pictures were captured. Then, the score for the sub-lethal toxicity and lethality was determined for each fish and condition and the mean score was calculated. The assays were independently replicated three times, using 10 embryos for each condition and compound in each assay, and thus the total number of zebrafish embryos used was 480.
Each of the three compounds (3, 4 and 7) was dissolved in 100% dimethyl sulfoxide (DMSO, spectroscopy grade) and diluted in Danieau’s medium to a final concentration of 25 μΜ (0.5% DMSO), followed by ½ serial dilutions to provide five testing concentrations (1.6, 3.13, 6.25, 12.5 and 25 μM).
Next, 3 dpf zebrafish eleuthero embryos randomly selected were immersed in a 24-well plate containing the three compounds in the different testing concentrations (n = 10 larvae per well). At the same time, 10 Vehicle-treated Control eleuthero embryos (VHC) were also treated with 0.5% DMSO, in accordance with the final solvent concentration of testing compounds to compare the possible effects of the compounds. The eleuthero embryos were incubated under a 14/10 h light/dark cycle at 27–28 °C.
After the 48 h exposure, at 5 dpf, the lethality (cardiac rhythm and degraded body were used as clinical criteria) and touch-stimulation response were assessed using non-anesthetized eleuthero embryos, while the possible morphological defects were evaluated after anesthetizing the eleuthero embryos in 0.5 mM tricaine. All observations were performed using an M80 stereo microscope (Leica Microsystems, Danaher Co., Wetzlar, Germany) and pictures were captured with a Leica DFC310 FX digital color camera (Leica Microsystems, Danaher Co., Germany) and stored.
Mean score of lethality and sub-lethal toxicity per condition was calculated as follows: To each adverse effect observed (impaired motility, bad development, body curvature and swim bladder defects) a score of 1 was given (maximum 4 per larva), and a score of 6 to each dead embryo. The mean score was then calculated for all eleuthero embryos (pooled results) examined per condition, as performed before.
The results were obtained from three independent experiments, using ten larvae for each test concentration and compound. Statistical analysis was performed by using GraphPad Prism version 9.0 (GraphPad Software Inc., San Diego, CA, USA) and one-way analysis of variance (ANOVA) followed by Tukey’s multiple comparison test. The criterion for statistical significance was p < 0.05.

The next data set can be described thus: in vitro. The settings on record: human.
Data set [7] relates to human liver adenocarcinoma cell line (Hep G2). The data set can be described thus: MTT cytotoxicity assay, Hep G2. To be noted: for cytotoxicity (in words): Hep G2, in vitro. For orientation: Tetrazolium dyes change colour on reduction, which living cells bring about.
A short description of data set [8]: MTT cytotoxicity assay, Hep G2. To be noted: human.
In data set [9] the test system is human liver adenocarcinoma cell line (Hep G2).
[10] abbreviates: Mycobacterium tuberculosis, read-out: MIC.
Setting [11] is: Enterococcus faecalis, VANS144492.
Setting [12] is: Enterococcus faecium, VANS144754.
Setting [13] is: Neisseria gonorrhoeae, ATCC49226.
Setting [14] is: Staphylococcus aureus, MRSA MB5393, lowest concentration inhibiting ≥90% of growth after overnight incubation, read-out: MIC.
[15] abbreviates: Enterococcus faecalis, VANS144492, E. faecalis VANS 144492, lowest concentration inhibiting ≥90% of growth, read-out: MIC.
[16] abbreviates: Enterococcus faecium, VANS144754, E. faecium VANS 144754, lowest concentration inhibiting ≥90% of growth, read-out: MIC.
Setting [17] is: Neisseria gonorrhoeae, N. gonorrhoeae ATCC49226, lowest concentration inhibiting ≥90% of growth, read-out: MIC.

In brackets after ≈: the same amount, converted by molar mass. Entries after “also recorded” stand apart in the source; their conditions may differ. Where two headings read alike, the source gives them in different places.

As a reminder, the IC50 is the concentration at which inhibition is half-maximal. A lower IC50 goes with greater potency in that assay. For `CC(=O)[C@](C)(O)[C@@H](O)C[C@@H]1C[C@@]23OC(=O)C(=C2O)C(=O)[C@@]2(C)[C@H]4[C@H](C=C[C@H]2[C@H](C)/C=C/C[C@]3(C)C=C1CO)[C@@H](O[C@@H]1O[C@H](C)[C@@H](O)[C@H](O[C@H]2O[C@H](C)[C@@H](OC(=O)c3c(O)ccc(Cl)c3C)[C@H](O)[C@H]2O)[C@H]1O)[C@H](C)C[C@@H]4C` [Compound 4, phocoenamicin B], the MIC was 7.4 µM (≈ 8.05 µg/mL) in [1] (Staphylococcus aureus, MRSA); 14.7 µM (≈ 16 µg/mL) in [2] (setting [10]); > 58.8 µM in [3] (setting [11]); ≥ 58.8 µM in data set [4] (setting [12]); > 118 µM in data set [5] (setting [13]). Besides, the developmental abnormalities result in data set [6] is given as “no developmental abnormalities”. Also, in [6], the “toxicity (lethality and sub-lethal toxicity)” value was “no toxicity; also recorded: not to be toxic”. Besides, in “in vitro”, the IC50 amounted to 17.6 µM. Further, in data set [7], the “cytotoxicity (in words)” value is on record as “moderate activity”.
For the compound `[H]/N=C(/N)N[C@H]1[C@H](O)[C@@H](O)[C@H](O[C@@H]2O[C@@H](C)[C@](O)(C=O)[C@H]2O[C@@H]2O[C@@H](CO)[C@H](O)[C@@H](O)[C@@H]2NC)[C@@H](N/C(N)=N\[H])[C@@H]1O` [streptomycin, reference compound], the MIC in [2] (setting [10]) is 2.8 to 5.4 µM (≈ 1.63 to 3.14 µg/mL); in data set [2], 2.8–5.4 (S) μM.
For the compound `CC(=O)[C@](C)(O)[C@@H](O)C[C@@H]1C[C@@]23OC(=O)C(=C2O)C(=O)[C@@]2(C)[C@H]4[C@H](C=C[C@H]2[C@H](C)/C=C/C[C@]3(C)C=C1C)[C@@H](O[C@@H]1O[C@H](C)[C@@H](O)[C@H](O[C@H]2O[C@H](C)[C@@H](OC(=O)c3c(O)ccc(Cl)c3C)[C@H](O)[C@H]2O)[C@H]1O)[C@H](C)C[C@@H]4C` [Compound 3, phocoenamicin], the MIC in data set [1] (setting [14]) was 3.7 µM (≈ 3.97 µg/mL); in data set [2] (setting [10]), 7.5 µM (≈ 8.04 µg/mL); in data set [3] (setting [15]), 7.5 µM (≈ 8.04 µg/mL); in data set [4] (setting [16]), 3.7 to 7.5 µM (≈ 3.97 to 8.04 µg/mL); in [5] (setting [17]) it was > 119 µM. For the same compound, the developmental abnormalities entry in [6] is “no developmental abnormalities”. Moreover, in data set [6], the “toxicity (lethality and sub-lethal toxicity)” value is listed as “no toxicity; also recorded: not to be toxic”. In addition, the half-inhibitory concentration (IC50) in data set [8] is > 58.8 µM.
Regarding `CC(=O)C(C)(O)C(O)CC1CC23OC(=O)C(=C2O)OC(=O)C2(C)C(C=CC4C(OC5OC(C)C(O)C(OC6OC(C)C(OC(=O)c7c(O)ccc(Cl)c7C)C(O)C6O)C5O)C(C)CC(C)C42)C(C)C=CCC3(C)C=C1CO` (stereo not shown) [Compound 1, Phocoenamicin D], the MIC was 58 µM (≈ 64 µg/mL) in [1] (Staphylococcus aureus, MRSA); 58 µM (≈ 64 µg/mL) in data set [2] (setting [10]); > 58 µM in data set [3] (setting [11]); ≥ 116 µM in data set [4] (setting [12]); > 116 µM in data set [5] (setting [13]). Besides, the 50% inhibitory concentration (IC50) in “in vitro” is > 58.8 µM.
Regarding penicillin [reference compound], the MIC in data set [5] (N. gonorrhoeae ATCC49226, lowest concentration inhibiting ≥90% of growth) is recorded as 5.6 (P) μM.
Regarding `CC(=O)[C@](C)(O)[C@@H](O)C[C@@H]1C[C@@]23OC(=O)C(=C2O)OC(=O)[C@@]2(C)[C@H]4[C@H](C=C[C@H]2[C@H](C)/C=C/C[C@]3(C)C=C1C)[C@@H](O[C@@H]1O[C@H](C)[C@@H](O)[C@H](O[C@H]2O[C@H](C)[C@@H](OC(=O)c3c(O)ccc(Cl)c3C)[C@H](O)[C@H]2O)[C@H]1O)[C@H](C)C[C@@H]4C` [Compound 5, phocoenamicin C], the MIC in [1] (setting [14]) was 29.4 µM (≈ 32 µg/mL); in [2] (setting [10]), 29.4 to 58.8 µM (≈ 32 to 64 µg/mL); in data set [3] (setting [15]), > 58.8 µM; in [4] (setting [16]), > 58.8 µM; in data set [5] (setting [17]), > 58.8 µM. Also, in [8], the IC50 is > 58.8 µM.
As for `COS(C)(=O)=O` [MMS, Methyl methanesulfonate, reference compound], the “cell death (positive control)” value in [7] (Hep G2, MTT, 2 mM) is 100%.
For the compound `CC1=CC2(C)CC=CC(C)C3C=CC4CC(C)CCC4C3(C)C(=O)C3=C(O)C2(CC1CC(C)O)OC3=O` (stereo not shown) [Compound 6, Maklamicin B], the MIC in data set [1] (setting [14]) was 2 µM (≈ 1.02 µg/mL); in [2] (setting [10]), 2 µM (≈ 1.02 µg/mL); in [3] (setting [15]) it was 62.9 µM (≈ 32 µg/mL); in data set [4] (setting [16]), 1 µM (≈ 0.509 µg/mL); in data set [5] (setting [17]) it was > 252 µM. Also, the IC50 in the data set “in vitro” was > 58.8 µM.
As to `C[C@H]1CC[C@@H]2[C@H](C=C[C@H]3[C@H](C)/C=C/C[C@]4(C)C=C(CO)[C@H](C[C@@H](C)O)C[C@]45OC(=O)C(=C5O)C(=O)[C@@]23C)C1` [Compound 7, maklamicin], the MIC in [1] (MRSA MB5393, lowest concentration inhibiting ≥90% of growth after overnight incubation, read-out: MIC) was <0.5 µM; in data set [1] (setting [14]), < 0.5 µM; in data set [2] (setting [10]), 61 µM (≈ 32 µg/mL); in [3] (setting [15]) it was 1.9 µM (≈ 0.997 µg/mL); in data set [4] (setting [16]), 1 µM (≈ 0.525 µg/mL); in data set [5] (setting [17]), > 244 µM. Besides, in data set [6], the “toxicity (lethality and sub-lethal toxicity)” value is recorded as “no toxicity; also recorded: not to be toxic”. In addition, in [9], the “cytotoxicity (in words)” value is given as “moderate activity”. The same compound registered a 50% inhibitory concentration (IC50) in the data set “in vitro” of 40.2 µM.
`Cc1c(Cl)ccc(O)c1C(=O)O[C@H]1[C@H](O)[C@@H](O)[C@@H](O[C@@H]2[C@@H](O)[C@H](O[C@@H]3[C@H]4C=C[C@H]5[C@H](C)/C=C/C[C@]6(C)C=C(CO)[C@H](C[C@@H](C)O)C[C@]67OC(=O)C(=C7O)C(=O)[C@@]5(C)[C@@H]4[C@@H](C)C[C@H]3C)O[C@H](C)[C@H]2O)O[C@@H]1C` [Compound 2, Phocoenamicin E]: the MIC in data set [1] (Staphylococcus aureus, MRSA) is 31.5 to 63 µM (≈ 32 to 64 µg/mL); in data set [2] (setting [10]), 31.5 to 63 µM (≈ 32 to 64 µg/mL); in data set [3] (setting [15]), > 63 µM; in [4] (setting [16]), > 63 µM; in data set [5] (setting [17]) it was > 126 µM. This compound also gave a half-inhibitory concentration (IC50) in data set [8] of 21 µM. Further, the “cytotoxicity (in words)” value in data set [7] is on record as “moderate activity”.
In the case of `CN[C@H](CC(C)C)C(=O)N[C@H]1C(=O)N[C@@H](CC(N)=O)C(=O)N[C@H]2C(=O)N[C@H]3C(=O)N[C@H](C(=O)N[C@H](C(=O)O)c4cc(O)cc(O)c4-c4cc3ccc4O)[C@H](O)c3ccc(c(Cl)c3)Oc3cc2cc(c3O[C@@H]2O[C@H](CO)[C@@H](O)[C@H](O)[C@H]2O[C@H]2C[C@](C)(N)[C@H](O)[C@H](C)O2)Oc2ccc(cc2Cl)[C@H]1O` [vancomycin, reference compound], the MIC in data set [1] (MRSA MB5393, lowest concentration inhibiting ≥90% of growth after overnight incubation) is 1.4 (V) μM; in data set [1] (setting [14]) it was 1.4 µM (≈ 2.03 µg/mL); in data set [3] (E. faecalis VANS 144492, lowest concentration inhibiting ≥90% of growth) it was 1.4 (V) μM; in data set [3] (setting [15]), 1.4 µM (≈ 2.03 µg/mL); in [4] (E. faecium VANS 144754, lowest concentration inhibiting ≥90% of growth) it was 1.4 (V) μM; in [4] (setting [16]), 1.4 µM (≈ 2.03 µg/mL).
